{"source": "paper PMC7010297", "about": "“How the initiating ribosome copes with ppGpp to translate mRNAs” (PLoS Biology, 2020)", "key": {"[1]": {"biological_target": "T1, 30S IC (30S-bound IF2, Bpy-tRNAi) (Escherichia coli, UniProt P0A705)", "T1 construct": "6xHis (N); made in house", "T1 sequence (P0A705 whole entry, looked up)": "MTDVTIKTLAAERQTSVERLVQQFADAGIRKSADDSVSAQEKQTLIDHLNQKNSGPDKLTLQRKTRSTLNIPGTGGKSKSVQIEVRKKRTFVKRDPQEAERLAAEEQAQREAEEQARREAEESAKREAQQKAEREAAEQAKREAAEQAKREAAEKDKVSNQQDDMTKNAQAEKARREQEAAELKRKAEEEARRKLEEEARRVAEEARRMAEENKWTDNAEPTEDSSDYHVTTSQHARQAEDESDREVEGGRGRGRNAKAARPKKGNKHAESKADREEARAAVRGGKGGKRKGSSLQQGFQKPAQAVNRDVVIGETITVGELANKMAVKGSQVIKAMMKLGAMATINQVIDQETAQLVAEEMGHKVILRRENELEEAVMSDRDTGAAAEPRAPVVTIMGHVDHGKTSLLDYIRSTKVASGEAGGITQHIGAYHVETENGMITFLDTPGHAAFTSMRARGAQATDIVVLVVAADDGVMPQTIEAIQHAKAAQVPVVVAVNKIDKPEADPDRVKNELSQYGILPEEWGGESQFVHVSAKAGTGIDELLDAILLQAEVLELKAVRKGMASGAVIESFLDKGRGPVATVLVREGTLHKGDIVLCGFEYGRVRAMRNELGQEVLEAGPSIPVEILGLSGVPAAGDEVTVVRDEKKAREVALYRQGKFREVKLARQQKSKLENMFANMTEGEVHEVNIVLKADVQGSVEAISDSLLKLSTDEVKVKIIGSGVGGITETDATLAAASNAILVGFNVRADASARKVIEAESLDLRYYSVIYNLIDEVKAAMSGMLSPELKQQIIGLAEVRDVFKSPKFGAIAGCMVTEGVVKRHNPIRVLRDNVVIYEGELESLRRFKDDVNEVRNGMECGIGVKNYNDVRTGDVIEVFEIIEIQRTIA", "experiment": "30S IC formation measured by MST at increasing concentrations of IF2 with guanosine nucleotides", "assay_type": "binding", "conditions": "Fig 2A", "excerpt": "To monitor the interaction of initiator tRNA and 30S ribosomal subunits, we used Microscale Thermophoresis (MST) with a fluorescently labelled initiator tRNA (Bpy-tRNAi) (Fig 1B). MST allows to measure fluorescence in a constrained space. Changes on the readout derive from molecular drifts resulting from small thermal equilibrium perturbations. Upon equilibrium perturbations, the patterns of Bpy-tRNAi migration away from the observation space are related to bound and unbound states (Fig 1B). […] On the contrary, a decrease in thermophoresis indicated the dissociation of Bpy-tRNAi. The relation between fluorescence measured at both equilibriums (Ff to Fi, after and prior to the perturbation, respectively) as a function of ligand concentration allowed to determine dissociation constants of the interaction (Fig 1C).\n(§1) Continuous lines indicate nonlinear regression fittings with a quadratic equation. Three measurements were performed; mean and standard deviation are plotted (S1 Data). (B) as (A) to measure the concentration dependence for each tested guanosine nucleotide at constant IF2 (1 μM). […] Continuous lines show best fits using exponential functions. (D) Formation of 70S IC as measured by Bpy-tRNAi accommodation in the P site of the ribosome; 0.1 μM 30S ICs were formed with Bpy-tRNAi and rapidly mixed with 0.3 μM 50S subunits on a stopped-flow apparatus as described in [14]. Colors are as in (C). Continuous lines show best fits using an exponential function for a single reaction step. Each stopped-flow trace results from the mean of 5 to 7 replicates."}, "[2]": {"biological_target": "T2, 70S pre-IC (50S joining to 30S IC) (Escherichia coli, UniProt P0A705)", "T2 construct": "6xHis (N); made in house", "T2 sequence (P0A705 whole entry, looked up)": "as above", "experiment": "70S pre-IC formation by light scattering, stopped-flow", "assay_type": "biochemical", "set-up": "K1, best-fit value / k2, best-fit value: unit not given here", "conditions": "for A0, best-fit value / K1, best-fit value / k2, best-fit value: fit Y=A0+A1*exp(-K1*x)+k2*x; for kfast (s-1) Avg: light scattering", "description": "as §1\n(§2) (A) Scheme of 70S IC formation. […] Time traces were analyzed by nonlinear regression with exponential terms. […] Formation of 70S IC, as measured by Bpy-tRNAi accommodation in the absence (F) or presence of 200 μM ppGpp (G). Time traces were analyzed by nonlinear regression with one exponential term. […] Continuous lines show best fits using an exponential function for a single reaction step. All time traces are mean values of 5 to 10 replicates. Bar graphs show mean and standard errors (error bars) derived from the nonlinear regression fitting (D,E,H,I) (S1 Data).\n(§3) To measure 70S pre-IC formation, a SX-20 stopped-flow instrument (Applied Photophysics, Leatherhead, UK) was set up for LS recording with an excitation wavelength of 430 nm. Scattered light was measured at an angle of 90° without a filter. Pseudo first-order conditions were approximated by using ≥3-fold excess of 50S subunits over 30S ICs; 0.2 μM 30S ICs were rapidly mixed in the instrument with 0.6 μM 50S at 25 °C. Bpy-tRNAi accommodation was measured essentially as described elsewhere. Briefly, 0.2 μM 30S ICs were formed using Bpy-tRNAi and rapidly mixed with 0.6 μM 50S at 25 °C. Fluorescence was excited at 470 nm and measured after a 495-nm longpass filter. Individual traces (6–11 traces) were averaged, and the resulting kinetic curve was approximated by single (F = A0 + A1*exp (-kapp1*t)) or double (F = A0 + A1*exp (-kapp1*t) + A2*exp (-kapp2*t)) exponential fit using Graphpad Prism 6.0 software (GraphPad, San Diego, California)."}, "[3]": {"biological_target": "T3, 70S IC (Escherichia coli, UniProt P0A705)", "T3 construct": "6xHis (N); made in house", "T3 sequence (P0A705 whole entry, looked up)": "as above", "experiment": "70S IC formation by Bpy-tRNAi accommodation, stopped-flow", "assay_type": "biochemical", "set-up": "K1, best-fit value: unit not given here", "conditions": "for A0, best-fit value / A1, best-fit value / K1, best-fit value / k2, best-fit value: fit Y=A0+A1*exp(-K1*x)+k2*x; for kfast (s-1) Avg: fluorescence", "description": "as §1, §2, §3"}, "[4]": {"biological_target": "T4, 30S-bound IF2 (30S IC) (Escherichia coli, UniProt P0A705)", "T4 construct": "6xHis (N); made in house", "T4 sequence (P0A705 whole entry, looked up)": "as above", "experiment": "ppGpp (or GDP) to GTP competitive assay for 30S IC formation by MST", "assay_type": "binding", "conditions": "mInfA", "description": "MST was calculated from the respective fluorescence time dependencies (S3 Fig). […] Symbols as in (B). […] Continuous lines indicate nonlinear regression fittings with quadratic (B and E) or same-site competition (G) functions. Three measurements were performed; mean and standard deviations are plotted (S1 Data).\n[…] Symbols are as indicated, 3 measurements were performed, and mean and standard deviation are plotted (S1 Data). Continuous lines show nonlinear regression fittings with a same-site inhibition model. […] (PDF) Click here for additional data file."}}, "note": "Several values for one entry are separate records, joined by “and”; a condition that tells them apart may be missing. Equal values may be shown once.", "data": [{"compound": "Nc1nc2c(ncn2[C@@H]2O[C@H](COP(=O)(O)OP(=O)(O)O)[C@@H](OP(=O)(O)OP(=O)(O)O)[C@H]2O)c(=O)[nH]1", "note": "[ppGpp]", "values": [{"measurement": "MST Replicates (a.u.)", "setting": "[1]; IF2 0.16 µM, in the presence of the nucleotide", "value": "941.10 a.u. and 944.88 a.u. and 948.29 a.u."}, {"measurement": "MST Average", "setting": "[1]; IF2 0.31 µM", "value": 944.83, "unit": "a.u."}, {"measurement": "MST Replicates (a.u.)", "setting": "[1]; IF2 0.31 µM", "value": "937.79 a.u. and 942.65 a.u. and 947.01 a.u."}, {"measurement": "MST Average", "setting": "[1]; IF2 0.63 µM", "value": 941.79, "unit": "a.u."}, {"measurement": "MST Replicates (a.u.)", "setting": "[1]; IF2 0.63 µM", "value": "935.48 a.u. and 940.20 a.u. and 943.38 a.u."}, {"measurement": "MST Average", "setting": "[1]; IF2 1.25 µM", "value": 942.39, "unit": "a.u."}, {"measurement": "MST Replicates (a.u.)", "setting": "[1]; IF2 1.25 µM", "value": "936.09 a.u. and 941.10 a.u. and 943.68 a.u."}, {"measurement": "MST Average", "setting": "[1]; IF2 2.50 µM", "value": 949.26, "unit": "a.u."}, {"measurement": "MST Replicates (a.u.)", "setting": "[1]; IF2 2.50 µM", "value": "943.13 a.u. and 948.21 a.u. and 950.30 a.u."}, {"measurement": "MST Average", "setting": "[1]; IF2 5.00 µM", "value": 968.50, "unit": "a.u."}, {"measurement": "MST Replicates (a.u.)", "setting": "[1]; IF2 5.00 µM", "value": "965.17 a.u. and 967.18 a.u. and 969.82 a.u."}, {"measurement": "efficiency (amplitude) of 70S pre-IC formation", "setting": "[2]; 0.2 mM nucleotide, no GTP", "value": "reduced efficiencies"}, {"measurement": "rapid 70S pre-IC formation in the absence of GTP", "setting": "[2]; 0.2 mM nucleotide, noncompetitive (S6 Fig)", "value": "negligible"}, {"measurement": "A0, best-fit value", "setting": "[2]; mInfA", "value": 1.01}, {"measurement": "K1, best-fit value", "setting": "[2]; mInfA", "value": "1.203 and 1.20"}, {"measurement": "k2, best-fit value", "setting": "[2]; mInfA", "value": "0.0007 and 0.000671"}, {"measurement": "A0, best-fit value", "setting": "[2]; mMF1", "value": 1.01}, {"measurement": "K1, best-fit value", "setting": "[2]; mMF1", "value": "2.759 and 2.76"}, {"measurement": "k2, best-fit value", "setting": "[2]; mMF1", "value": "0.0007 and 0.000692"}, {"measurement": "LS amplitude (a.u.) Avg", "setting": "[2]; mRNA mInfA", "value": 0.011, "unit": "a.u."}, {"measurement": "kfast (s-1) Avg", "setting": "[2]; mRNA mInfA", "value": 1.20, "unit": "s⁻¹"}, {"measurement": "LS amplitude (a.u.) Avg", "setting": "[2]; mRNA mMF1", "value": 0.012, "unit": "a.u."}, {"measurement": "kfast (s-1) Avg", "setting": "[2]; mRNA mMF1", "value": 2.76, "unit": "s⁻¹"}, {"measurement": "LS amplitude (a.u.) Avg", "setting": "[2]; mRNA mTufA", "value": 0.035, "unit": "a.u."}, {"measurement": "kfast (s-1) Avg", "setting": "[2]; mRNA mTufA", "value": 3.76, "unit": "s⁻¹"}, {"measurement": "A0, best-fit value", "setting": "[2]; mTufA", "value": 1.03}, {"measurement": "K1, best-fit value", "setting": "[2]; mTufA", "value": "3.763 and 3.76"}, {"measurement": "k2, best-fit value", "setting": "[2]; mTufA", "value": "0.0010 and 0.00104"}, {"measurement": "efficiency (amplitude) of 70S IC formation (Bpy-tRNAi accommodation)", "setting": "[3]; 0.2 mM nucleotide, no GTP", "value": "reduced efficiencies"}, {"measurement": "A0, best-fit value", "setting": "[3]; mInfA", "value": 0.98}, {"measurement": "A1, best-fit value", "setting": "[3]; mInfA", "value": 0.01}, {"measurement": "K1, best-fit value", "setting": "[3]; mInfA", "value": 1.82}, {"measurement": "k2, best-fit value", "setting": "[3]; mInfA", "value": -0.00033}, {"measurement": "A0, best-fit value", "setting": "[3]; mMF1", "value": 0.97}, {"measurement": "A1, best-fit value", "setting": "[3]; mMF1", "value": 0.0267}, {"measurement": "K1, best-fit value", "setting": "[3]; mMF1", "value": 1.27}, {"measurement": "k2, best-fit value", "setting": "[3]; mMF1", "value": -0.00023}, {"measurement": "Fluorescence Amplitude Avg", "setting": "[3]; mRNA mInfA", "value": 0.010}, {"measurement": "kfast (s-1) Avg", "setting": "[3]; mRNA mInfA", "value": 1.82, "unit": "s⁻¹"}, {"measurement": "Fluorescence Amplitude Avg", "setting": "[3]; mRNA mMF1", "value": 0.027}, {"measurement": "kfast (s-1) Avg", "setting": "[3]; mRNA mMF1", "value": 1.27, "unit": "s⁻¹"}, {"measurement": "Fluorescence Amplitude Avg", "setting": "[3]; mRNA mTufA", "value": 0.043}, {"measurement": "kfast (s-1) Avg", "setting": "[3]; mRNA mTufA", "value": 3.37, "unit": "s⁻¹"}, {"measurement": "A0, best-fit value", "setting": "[3]; mTufA", "value": 0.96}, {"measurement": "A1, best-fit value", "setting": "[3]; mTufA", "value": 0.0429}, {"measurement": "K1, best-fit value", "setting": "[3]; mTufA", "value": 3.37}, {"measurement": "k2, best-fit value", "setting": "[3]; mTufA", "value": -0.00059}, {"measurement": "MST Average", "setting": "[4]; Log [ppGpp] 0.29", "value": 1046.47, "unit": "a.u."}, {"measurement": "MST Average", "setting": "[4]; Log [ppGpp] 0.59", "value": 1038.08, "unit": "a.u."}, {"measurement": "MST Average", "setting": "[4]; Log [ppGpp] 0.89", "value": 1028.93, "unit": "a.u."}, {"measurement": "MST Average", "setting": "[4]; Log [ppGpp] 1.19", "value": 1018.24, "unit": "a.u."}, {"measurement": "MST Replicates (a.u.)", "setting": "[4]; Log [ppGpp] 1.19", "value": "1017.94 a.u. and 1018.60 a.u. and 1018.17 a.u."}, {"measurement": "MST Average", "setting": "[4]; Log [ppGpp] 1.49", "value": 1003.04, "unit": "a.u."}]}]}
